Like-named read-outs stand apart in the source and are kept apart here. Each block holds one molecule with its values, some of them ahead of it.
How the values were obtained:
EGFR = EGFR (Homo sapiens (Human), UniProt P00533); assay: EGFR kinase autophosphorylation, time-resolved fluorescence; type: biochemical; conditions: Table 1
Description: Determination of the inhibitory effect of the compound on EGFR: the kinase activity of EGFR was detected according to time-resolved fluorescence detection technology to evaluate automatic phosphorylation levels. The test compound was dissolved in 100% DMSO, diluted with 25 mM HEPES (pH=7.4) to the desired concentration, added into each well with 10 μL of the test compounds and 10 μL solution containing 5 ng EGFR, then cultured for 10 min at room temperature using the recombinase diluted by 100 mM HEPES with a dilution ratio of 1:80, subsequently added with 10 μL solution containing 20 mM HEPES, 2 mM MnCl2, 100 μM Na3VO4, 1 mM DTT buffer, and 20 μL of 0.1 mM ATP and 50 mM MgCl2 and cultured for 1 h. The positive group in each plate was added with ATP-MgCl2 enzyme, the negative control group without adding with ATP-MgCl2 enzyme, the liquid was sucked out completely after cultured for 1 h, and each well was washed with buffer for three times. The wells were added with 75 μL anti-phosphorylated tyrosine antibody containing 400 ng europium labeling and cultured 1 h, washed, then added with enhancing solution.

[1] = test system: human hepatoma HepG2 tumor cell lines; assay: MTT antiproliferation assay, HepG2; type: cell-based; conditions: for IC50: MTT, 48 h
Description: (§1) The effects on tumor cell proliferation: the antiproliferative activities of α-(3,5-dimethoxy-benzylidene)-α′-hydrocarbonyl methylene cyclic ketone on human hepatoma HepG2 tumor cell lines and human cutaneous melanoma A16-F10 cell lines were evaluated using methyl thiazolyl tetrazolium (MTT) assay.
(§2) Experimental procedures are performed as follows: tumor cells in DMEM culture medium containing 10% fetal bovine serum, 100 U·mL^−1 penicillin and 100 U·mL^−1 streptomycin were cultured in an incubator under 5% CO2 and saturated humidity at 37. Test compounds were dissolved in dimethyl sulfoxide and then diluted with DMEM culture medium to the corresponding concentration, wherein the final concentration of dimethyl sulfoxide was less than 0.01%.
(§3) Negative control group, the blank control group and experimental groups were separately set up, each group with three double-wells. The negative control group was only added with cells but without the drug, the blank control group wad only added with dimethyl sulfoxide solution. The experimental group was added at each well with 11 μL solution containing different concentrations of the sample to be tested, such that the final concentration of the drug were […]. The cells were cultured for additional 48 h in a incubator with 5% CO2 at 37, subsequently the culture solution was gently sucked out and each well was added with 200 μL 0.5 mg/mL of MTT solution. The cells were cultured for another 6 h, then the MTT culture solution was sucked out and each well was added with 150 μL dimethyl sulfoxide, followed by oscillation dissolved for 10 min. The absorbance OD values in each well were measured at the measurement wavelength 570 nm and the reference wavelength 630 nm using a microplate reader.

[2] = test system: human cutaneous melanoma A16-F10 cell lines; assay: MTT antiproliferation assay, A16-F10; type: cell-based
Description: as §1, §2, §3

[3] = Homo sapiens, HepG2, Table 2, read-out: Anti-proliferative effect on HepG2 tumor cells IC50
[4] = Table 1, read-out: anti-proliferation IC50 Hep G2
[5] = Table 1, MTT, 48 h, read-out: anti-proliferation IC50 A16-F10
[6] = Homo sapiens, HepG2, Table 1, read-out: anti-proliferation IC50 Hep G2
[7] = Homo sapiens, A16-F10, Table 1, MTT, 48 h, read-out: anti-proliferation IC50 A16-F10

Chain of EGFR (P00533 25-1210, species assumed): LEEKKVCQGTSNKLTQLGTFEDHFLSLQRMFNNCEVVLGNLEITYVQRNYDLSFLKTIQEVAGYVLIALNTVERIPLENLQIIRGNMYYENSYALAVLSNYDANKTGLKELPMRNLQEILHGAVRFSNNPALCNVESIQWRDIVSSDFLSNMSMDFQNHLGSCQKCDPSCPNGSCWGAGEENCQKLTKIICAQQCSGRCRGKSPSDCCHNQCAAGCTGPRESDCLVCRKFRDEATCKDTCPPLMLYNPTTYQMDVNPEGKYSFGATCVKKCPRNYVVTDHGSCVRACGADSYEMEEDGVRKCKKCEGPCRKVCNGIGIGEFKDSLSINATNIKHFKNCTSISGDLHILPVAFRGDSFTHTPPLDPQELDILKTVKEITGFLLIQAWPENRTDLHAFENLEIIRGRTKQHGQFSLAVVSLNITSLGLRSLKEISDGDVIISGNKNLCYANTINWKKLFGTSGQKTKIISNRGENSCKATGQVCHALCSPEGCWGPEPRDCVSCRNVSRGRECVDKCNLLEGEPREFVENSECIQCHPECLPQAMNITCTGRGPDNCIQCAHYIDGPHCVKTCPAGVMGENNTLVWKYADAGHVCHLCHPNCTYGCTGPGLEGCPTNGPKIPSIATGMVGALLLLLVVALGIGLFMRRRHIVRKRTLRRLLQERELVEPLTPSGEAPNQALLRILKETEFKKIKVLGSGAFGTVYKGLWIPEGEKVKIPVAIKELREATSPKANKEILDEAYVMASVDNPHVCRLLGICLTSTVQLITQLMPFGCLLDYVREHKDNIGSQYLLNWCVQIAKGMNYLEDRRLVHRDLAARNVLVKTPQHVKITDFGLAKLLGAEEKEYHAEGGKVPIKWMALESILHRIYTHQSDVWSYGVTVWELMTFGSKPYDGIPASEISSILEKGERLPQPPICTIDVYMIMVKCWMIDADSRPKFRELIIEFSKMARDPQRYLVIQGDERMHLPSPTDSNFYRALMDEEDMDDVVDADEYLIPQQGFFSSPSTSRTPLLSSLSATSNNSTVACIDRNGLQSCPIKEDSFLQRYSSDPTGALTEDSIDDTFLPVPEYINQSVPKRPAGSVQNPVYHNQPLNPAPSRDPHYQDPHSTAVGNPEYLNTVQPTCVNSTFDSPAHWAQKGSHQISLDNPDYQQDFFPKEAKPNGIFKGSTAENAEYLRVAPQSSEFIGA

IC50 (EGFR): 4.66 µM
Structure (SMILES): COc1cc(/C=C2\CCC/C(=C\c3ccc(O)cc3)C2=O)cc(OC)c1 [(2E,6E)-2-(3,5-dimethoxybenzylidene)-6-(4-hydroxybenzylidene)cyclohexanone]

IC50 [1, 3]: 11.3 µM
Structure (SMILES): COc1cc(/C=C2\CC/C(=C\c3ccccc3)C2=O)cc(OC)c1 [(2E,5E)-2-(3,5-dimethoxybenzylidene)-5-benzylidenecyclopentanone]
anti-proliferative effect on HepG2 tumor cell lines (in words) ([1]; comparison): significantly stronger than curcumin

IC50 (EGFR): 1.68 µM
Structure (SMILES): COc1cc(/C=C2\CCC/C(=C\c3ccccc3)C2=O)cc(OC)c1 [(2E,6E)-2-(3,5-dimethoxy-benzylidene)-6-benzylidene cyclohexanone]

IC50 (EGFR): 4.81 µM
Structure (SMILES): COc1cc(/C=C2\CCC/C(=C\c3cc(C(C)(C)C)c(O)c(C(C)(C)C)c3)C2=O)cc(OC)c1 [(2E,6E)-2-(3,5-dimethoxybenzylidene)-6-(3,5-di-t-butyl-4-hydroxybenzylidene)cyclohexanone]

IC50 [1, 3]: 79.9 µM
Structure (SMILES): COc1cc(/C=C2\CC/C(=C\c3ccc(F)cc3)C2=O)cc(OC)c1 [(2E,5E)-2-(3,5-dimethoxybenzylidene)-5-(4-fluorobenzylidene)cyclopentanone]

melting point: 131.2 to 131.6 °C
IC50 (EGFR): 5.37 µM
Structure (SMILES): COc1cc(/C=C2\CCC/C(=C\c3ccc(OC)c(O)c3)C2=O)cc(OC)c1 [(2E,6E)-2-(3,5-dimethoxy-benzylidene)-6-(3-hydroxy-4-methoxybenzylidene)cyclohexanone]

IC50 (EGFR): 2.08 µM
IC50 [1, 6]: 8.56 µM
IC50 [2, 7]: 4.71 µM
Structure (SMILES): COc1cc(/C=C2\CCC/C(=C\c3cc(OC)cc(OC)c3)C2=O)cc(OC)c1 [(2E,6E)-2,6-bis (3,5-dimethoxybenzylidene)cyclohexanone]

IC50 (EGFR): 0.43 µM
IC50 [1, 6]: 1.01 µM
IC50 [2, 7]: 0.71 µM
IC50 ([2]; Homo sapiens, A16-F10, cell line not given, read-out: anti-tumor activity IC50): < 1 µM
Structure (SMILES): COc1cc(/C=C2\CCC/C(=C\c3ccc(O)c(O)c3)C2=O)cc(OC)c1 [(2E,6E)-2-(3,5-dimethoxybenzylidene)-6-(3,4-dihydroxybenzylidene)cyclohexanone]

IC50 (EGFR): 2.17 µM
IC50 [1, 6]: 7.53 µM
IC50 [2, 7]: 5.64 µM
Structure (SMILES): COc1cc(/C=C2\CCC/C(=C\c3ccccc3F)C2=O)cc(OC)c1 [(2E,6E)-2-(3,5-dimethoxybenzylidene)-6-(2-fluorobenzylidene)cyclohexanone]

IC50 (EGFR): 6.85 µM
Structure (SMILES): COc1cc(/C=C2\CCC/C(=C\c3cccc(Br)c3)C2=O)cc(OC)c1 [(2E,6E)-2-(3,5-dimethoxybenzylidene)-6-(3-bromobenzylidene)cyclohexanone]

IC50 [2, 7]: 18.7 µM
Structure (SMILES): COc1cc(/C=C/C(=O)CC(=O)/C=C/c2ccc(O)c(OC)c2)ccc1O [curcumin, reference compound]

Further lines, the molecule ahead of its results:

Structure (SMILES): COc1cc(/C=C2\CCC/C(=C\c3ccc(Cl)cc3)C2=O)cc(OC)c1 [(2E,6E)-2-(3,5-dimethoxybenzyl-idene)-6-(4-chlorobenzylidene)cyclohexanone]
IC50 (EGFR): 15.3 µM
IC50 [1, 4]: 25.5 µM
IC50 [2, 5]: 18.4 µM

Structure (SMILES): COc1cc(/C=C2\CCC/C(=C\c3ccccc3Br)C2=O)cc(OC)c1 [(2E,6E)-2-(3,5-dimethoxybenzyl-idene)-6-(2-bromobenzylidene)cyclohexanone]
IC50 (EGFR): 8.08 µM
IC50 [1, 4]: 32.2 µM
IC50 [2, 5]: 12.4 µM

Structure (SMILES): COc1cc(/C=C2\CCC/C(=C\c3ccc(Br)cc3)C2=O)cc(OC)c1 [(2E,6E)-2-(3,5-dimethoxybenzyl-idene)-6-(4-bromophenyl-methylene)cyclohexanone]
IC50 (EGFR): 7.12 µM

Structure (SMILES): COc1cc(/C=C2\CCC/C(=C\c3ccc(S(C)(=O)=O)cc3)C2=O)cc(OC)c1 [(2E,6E)-2-(3,5-dimethoxybenzyl-idene)-6-(4-methylsulphonylbenzylidene)cyclohexanone]
IC50 (EGFR): 1.96 µM

Structure (SMILES): COc1cc(/C=C2\CCC/C(=C\c3ccc(N(C)C)cc3)C2=O)cc(OC)c1 [(2E,6E)-2-(3,5-dimethoxybenzyl-idene)-6-(4-dimethylaminobenzylidene)cyclohexanone]
IC50 (EGFR): 3.98 µM
IC50 [1, 4]: 11.8 µM
IC50 [2, 5]: 5.84 µM

Structure (SMILES): COc1cccc(/C=C2\CCC/C(=C\c3cc(OC)cc(OC)c3)C2=O)c1 [(2E,6E)-2-(3,5-dimethoxybenzyl-idene)-6-(3-methoxybenzylidene)cyclohexanone]
IC50 (EGFR): 6.13 µM

Structure (SMILES): COc1cc(/C=C2\CCC/C(=C\c3ccccc3Cl)C2=O)cc(OC)c1 [(2E,6E)-2-(3,5-dimethoxybenzyl-idene)-6-(2-chlorobenzylidene)cyclohexanone]
IC50 (EGFR): 1.54 µM

Structure (SMILES): COc1cc(/C=C2\CCC/C(=C\c3ccccc3OC)C2=O)cc(OC)c1 [(2E,6E)-2-(3,5-dimethoxybenzyl-idene)-6-(2-methoxybenzylidene)cyclohexanone]
IC50 [1, 4]: > 200 µM
IC50 [2, 5]: > 200 µM

Structure (SMILES): COc1cc(/C=C2\CCC/C(=C\c3ccc(F)cc3)C2=O)cc(OC)c1 [(2E,6E)-2-(3,5-dimethoxybenzyl-idene)-6-(4-fluorobenzylidene)cyclohexanone]
IC50 (EGFR): 5.69 µM
IC50 [1, 4]: 12.1 µM
IC50 [2, 5]: 7.63 µM

Structure (SMILES): COc1cc(/C=C2\CCC/C(=C\c3cccc(Cl)c3)C2=O)cc(OC)c1 [(2E,6E)-2-(3,5-dimethoxybenzyl-idene)-6-(3-chlorobenzylidene)cyclohexanone]
IC50 (EGFR): 2.27 µM

Structure (SMILES): C#Cc1cccc(Nc2ncnc3cc(OCCOC)c(OCCOC)cc23)c1 [erlotinib, reference compound]
IC50 [2, 7]: 0.2 µM

Structure (SMILES): COc1ccc(/C=C2\CCC/C(=C\c3cc(OC)cc(OC)c3)C2=O)cc1 [(2E,6E)-2-(3,5-dimeth-oxybenzylidene)-6-(4-methoxybenzylidene)cyclohexanone]
IC50 (EGFR): 18.7 µM

Structure (SMILES): COc1cc(/C=C2\CCC/C(=C\C3CCCCC3)C2=O)cc(OC)c1 [(2E,6E)-2-(3,5-dimethoxybenzyl-idene)-6-(cyclohexylmethylene)cyclohexanone]
IC50 (EGFR): 7.52 µM
IC50 [1, 4]: 17.2 µM
IC50 [2, 5]: 12.2 µM

Source: patent publication US9409845B2, “Alpha-(3,5-dimethoxybenzylidene)-alpha′-hydrocarbyl methylene cyclic ketone and preparation method thereof” (PHARMAXYN LABORATORIES LTD., priority 2012, dated 2016)
